Test results from patent US20160122268A1, “PROCESS FOR SIMULTANEOUS EXTRACTION AND SEPARATION OF ESTERIFIED AND UNESTERIFIED MONOHYDROXYCAROTENOIDS” (UNIVERSITY OF MARYLAND, COLLEGE PARK, priority 2013, published 2016).

Test: Solubility in hydrocarbon solvents (pentane or hexane), observed in Soxhlet extraction
Type: physicochemical
Conditions: boiling pentane or hexane
Excerpt: In an alternative process, Soxhlet extraction of mono- and dihydroxycarotenoids can also be carried out to separate these carotenoids. As mentioned earlier, esterified forms of lutein and zeaxanthin are well solubilized in hydrocarbon solvents such as n-hexane and n-pentane, whereas their unesterified parent compounds, […], show a remarkable difference in their solubility behavior and remain insoluble. In fact, […] are considerably more soluble in n-pentane or n-hexane than lutein and zeaxanthin.
Similarly, a mixture of zeaxanthin and β-cryptoxanthin can be separated by Soxhlet extraction with n-pentane or n-hexane due to their differential solubility in hydrocarbon solvents.
100 mg of 1:1 mixture of (3R)-β-cryptoxanthin (13) and (3R,3′R)-zeaxanthin (5) was subjected to Soxhlet extraction and these unesterified carotenoids were extracted with boiling pentane (b.p.=36° C.) or hexane (b.p.=69° C.). […] After 4 hours, the composition of the extract was: (3R)-β-cryptoxanthin (13) (85%) and (3R,3′R)-zeaxanthin (5) (15%). In a subsequent Soxhlet extraction with pentane or hexane, (3R)-β-cryptoxanthin (13) was obtained in 98% purity.

| SMILES | solubility in hydrocarbon solvents |
| --- | --- |
| CC1=C(/C=C/C(C)=C/C=C/C(C)=C/C=C/C=C(C)/C=C/C=C(C)/C=C/C2=C(C)C[C@@H](O)CC2(C)C)C(C)(C)CCC1 [compound 13, (3R)-β-cryptoxanthin] | significantly better solubility |
| CC1=C(/C=C/C(C)=C/C=C/C(C)=C/C=C/C=C(C)/C=C/C=C(C)/C=C/C2=C(C)C[C@@H](O)CC2(C)C)C(C)(C)C[C@H](O)C1 [compound 5, (3R,3′R)-zeaxanthin] | only sparingly soluble |
| CC(C=CC=C(C)C=CC1=C(C)CC(O)CC1(C)C)=CC=CC=C(C)C=CC=C(C)C=CC1C(C)=CCCC1(C)C [compound 9, (3R,6′R)-α-cryptoxanthin] | much greater solubility than lutein |
